Measurements: patent US20240261418A1, “SOS1 DEGRADING AGENT AND PREPARATION METHOD THEREFOR AND APPLICATION THEREOF” (SHANGHAI LEADINGTAC PHARMACEUTICAL CO. LTD., priority 2021, published 2024)

Target: T1, SOS1 protein (Homo sapiens, UniProt Q07889)
T1 sequence (Q07889 1-1333): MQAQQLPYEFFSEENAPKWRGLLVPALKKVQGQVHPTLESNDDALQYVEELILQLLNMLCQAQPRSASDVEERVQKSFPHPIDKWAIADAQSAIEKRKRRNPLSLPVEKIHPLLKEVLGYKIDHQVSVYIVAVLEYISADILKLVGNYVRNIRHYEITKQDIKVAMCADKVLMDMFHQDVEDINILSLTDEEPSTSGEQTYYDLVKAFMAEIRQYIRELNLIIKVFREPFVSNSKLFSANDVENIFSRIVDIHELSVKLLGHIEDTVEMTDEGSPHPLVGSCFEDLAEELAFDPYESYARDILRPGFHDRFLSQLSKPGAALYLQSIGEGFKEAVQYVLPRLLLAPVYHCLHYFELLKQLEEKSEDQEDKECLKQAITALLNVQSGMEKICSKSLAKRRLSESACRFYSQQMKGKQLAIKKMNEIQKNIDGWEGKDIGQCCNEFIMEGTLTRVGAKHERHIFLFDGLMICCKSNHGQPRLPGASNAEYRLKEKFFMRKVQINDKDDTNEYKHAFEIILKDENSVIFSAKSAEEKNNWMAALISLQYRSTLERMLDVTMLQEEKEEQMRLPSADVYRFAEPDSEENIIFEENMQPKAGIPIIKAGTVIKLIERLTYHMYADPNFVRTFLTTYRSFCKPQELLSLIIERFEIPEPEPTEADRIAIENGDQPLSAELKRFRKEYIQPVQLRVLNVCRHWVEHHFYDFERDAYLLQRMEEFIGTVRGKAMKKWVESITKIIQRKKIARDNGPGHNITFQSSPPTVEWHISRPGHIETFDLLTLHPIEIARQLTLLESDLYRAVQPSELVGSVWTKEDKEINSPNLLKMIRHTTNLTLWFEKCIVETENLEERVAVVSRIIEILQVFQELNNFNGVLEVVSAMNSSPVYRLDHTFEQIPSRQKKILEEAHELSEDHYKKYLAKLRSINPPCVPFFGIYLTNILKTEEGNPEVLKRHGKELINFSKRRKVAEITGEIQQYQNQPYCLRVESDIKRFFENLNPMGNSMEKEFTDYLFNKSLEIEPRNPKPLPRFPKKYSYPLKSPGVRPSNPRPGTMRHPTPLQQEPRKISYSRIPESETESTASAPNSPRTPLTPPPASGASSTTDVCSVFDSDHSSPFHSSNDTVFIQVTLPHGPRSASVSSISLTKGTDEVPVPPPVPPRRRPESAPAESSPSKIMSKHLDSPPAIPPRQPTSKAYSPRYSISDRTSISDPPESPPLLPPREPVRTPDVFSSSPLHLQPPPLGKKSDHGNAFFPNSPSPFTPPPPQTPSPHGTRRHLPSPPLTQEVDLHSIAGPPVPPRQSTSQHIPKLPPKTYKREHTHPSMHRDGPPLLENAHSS
Experiment: SOS1 degradation assay (Western blot) in A-427 cells
Type: cell-based
Design: host or cells: NCI-H358, A-427, SW-620, DLD-1 (human cancer cell lines)
Conditions: A-427 (KRAS G12D), 24 h; for DC50: read-out: A427 (G12D) DC50; for Dmax: read-out: A427 (G12D) Dmax
Description: Test Example 2: SOS1 Degradation Assay
The degradation of SOS1 by the compounds was investigated on KRAS G12C mutant human non-small cell lung cancer cells NCI-H358 (ATCC or Stem Cell Bank, Chinese Academy of Sciences), KRAS G12D mutant human lung cancer cells A-427 (ATCC), KRAS G12V mutant human colorectal adenocarcinoma cells SW-620 (ATCC), and KRAS G13D mutant human colorectal adenocarcinoma epithelial cells DLD-1 (ATCC). The specific procedures were as follows:
0.95 mL of cells were seeded into each well of a 24-well cell culture plate to achieve a cell density of 5×10^5 cells/well; the cell plate was incubated in an incubator at 37° C. with 5% CO2 overnight. Then 50 μL of the compound solution after dilution was added to each of the wells with the corresponding cells, so that the final concentration of the compound was in a range of 0.03-3000 nM. The final concentration of DMSO was 0.25%.
After dosing, the cell plate was incubated in an incubator at 37° C. with 5% CO2 for 24 h. The cell culture medium in the 24-well plate was removed, and the plate was washed twice with 1×PBS. 180 μL of RIPA (strong) lysis buffer (Beyotime, P0013B) supplemented with 1 mM phenylmethylsulfonyl fluoride, a protease inhibitor mixture (Beyotime, P1008), and a protease phosphatase inhibitor mixture (Beyotime, P1045) was added to lyse adherent NCI-H358 cells at the bottom of the cell culture plate. After the plate was left to stand on ice for 30 min, the protein lysate in each well was transferred to a 1.5 mL centrifuge tube and centrifuged at 15000 g for 20 min at 4° C. […] The concentration of total protein in the cell lysate supernatant was determined using the BCA Protein Quantification Kit (Tiangen, PA115-02). […]
The concentration of total protein in the cell lysate was determined by BCA. […] After the blocking, the PVDF membrane was incubated with an SOS1 primary antibody (Abcam, ab140621) at 4° C. overnight, washed with a TBST buffer (2.4 g of Tris, 8.8 g of NaCl, 1.5 mL of Tween 20, with pH adjusted to 7.4, with the volume brought to 1 L) for 30 min (10 min/time), incubated with a secondary antibody (Abcam, ab205718) at room temperature for 2 h, washed with a TBST buffer for 30 min (10 min/time), and finally incubated with Clarity Western ECL Substrate (BIO-RAD, 170-5061) for 5 min for luminescence and color development, and a chemiluminescence imaging system (Clinx, ChemiScope 6200 Touch) was used for color development and protein mapping. […] The gray correction value for each sample was calculated by the formula: gray correction value=(gray value of target protein/gray value of corresponding internal reference)×103. Then the degradation rate was calculated by comparing the gray correction value with the gray correction value of the control group. […]

DC50 [nM]	Dmax [%]	SMILES
≤ 50	80 to 100	COc1cc2nc(C)nc(N[C@H](C)c3cc(-c4c(Cl)cccc4CN(C)C)cs3)c2cc1[C@H]1CC[C@H](C(=O)N2CCN(CC3CCC4(CC3)CCN(C(=O)c3ccc(Cl)c(N5CCC(=O)NC5=O)c3)CC4)CC2)CC1 [Example 1, 1-(2-chloro-5-(9-((4-((1R,4R)-4-(4-(((R)-1-(4-(2-chloro-6-((dimethylamino)methyl)phenyl)thien-2-yl)ethyl)amino)-7-methoxy-2-methylquinazolin-6-yl)cyclohexane-1-carbonyl)piperazin-1-yl)methyl)-3-azaspiro[5.5]undecane-3-carbonyl)phenyl)dihydropyrimidine-2,4(1H,3H)-dione]
≤ 50	50 to 80	COc1cc2nc(C)nc(N[C@H](C)c3cc(-c4c(Cl)cccc4CN(C)C)cs3)c2cc1[C@H]1CC[C@H](C(=O)N2CCC(CCOCC3CCN(C(=O)c4ccc(Cl)c(N5CCC(=O)NC5=O)c4)CC3)CC2)CC1 [Example 5, 1-(2-chloro-5-(4-((2-(1-((1R,4R)-4-(4-(((R)-1-(4-(2-chloro-6-((dimethylamino)methyl)phenyl)thien-2-yl)ethyl)amino)-7-methoxy-2-methylquinazolin-6-yl)cyclohexane-1-carbonyl)piperidin-4-yl)ethoxy)methyl)piperidine-1-carbonyl)phenyl)dihydropyrimidine-2,4(1H,3H)-dione]
